In US7330794B2, “Water monitoring system using bivalve mollusks” (Aqueous Solutions, Inc., priority 2000, dated 2008):

System: bivalve mollusks
Test: Water screening with bivalve mollusks: shell gape and Degree of Alarm (DOA) on toxicant exposure
Assay type: in vivo
Description: Further calibration of the system is performed after one or more mollusk chambers are properly installed. The digital circuitry or computer 39 then monitors the gape of the mollusk during approximately the first three days after installation. From the gape values derived during this period, the computer derives a natural maximum gape value for the individual mollusk. Subsequent calculations based on output from the mollusk chamber 15 are based on the percentage of gape, i.e., the percentage of the maximum gape output value that the presently detected gape output value represents.
When the system 3 contains a number of mollusk chambers 15, the individual mollusk percentage gape data for all of the mollusks of the system is totaled, and the average percentage gape value calculated periodically per sampling interval by computer 38. This mean data value Gi is the variable used as the mollusk output data for determining if toxicants are present in the water being screened.
In the present specification, Gi means the current average mollusk gape data, Gi−i means the most recent earlier mollusk output value, Gi−2 the next earlier mollusk output variable, etc. The oldest of the gape values is Gi−n+1. Preferably, the set of data values Gi−n+1 to Gi are stored in a FIFO (first-in, first-out) stack data structure in the computer doing the analysis. The stack acts as a shift register, shifting earlier data values as the new data value Gi is acquired. Preferably the value of n is 30, and the data values G are acquired every half-second.
According to an aspect of the invention, the variance over time of the gape values is one of the best statistical indicators of the pumping of the mollusk. By the term variance, what is meant is a determination of the variability of the gape values from a mean value, which may be determined or expressed using a variety of functions. Particularly preferred, however, is the classical calculation of variance as:
In a basic method for toxicant detection, DOA is calculated continuously using the formula DOA=(V·|R|)/M wherein V is the mean variance in gape over a recent period of time, preferably 30 seconds, R is the mean regression of the gape over the period (regression herein meaning the slope of the best-fit line through the data values of the time period). M may be the traveling mean as defined above, or may be the mean gape taken over another longer period, preferably about one hour.
An implementation of this method is shown by the graphs of FIGS. 7 to 10. Water being screened by a system as described previously was loaded with sulphuric acid, resulting in a drop in pH as shown in the graph of FIG. 7.
When the variance is below this threshold value, a first, less sensitive function of the gape data values is used to calculate the DOA value. Such a function might be a linear calculation such as DOA=(1−Gi)*10 which would yield a DOA value between 0 and 10, with 10 corresponding to the mollusk completely closing its shell and strongly indicating presence of toxicant.
When the variance value is greater than or equal to the threshold value, the DOA value may be calculated by a different function which amplifies the calculation from the closing of the shell during the period of high variance. Particularly preferred is a more sensitive high-variance function: DOA=f(Gi)+V/K
An implementation of such a DOA method using a Logistic calculation, with a variance factor added for variances over 50, is illustrated by the graphs of FIGS. 12 to 16.
In this example, a system as in Example 3 was used, only the toxicant introduced was copper (as aqueous CuSO4), as shown in FIG. 17.

[Cl-].[Na+] [chloride, NaCl]
DOA output (chloride, Logistic calculation with variance factor for variances over 50, at 0.5 hours, chloride concentration still relatively low, FIG. 16): greater than 5
raw gape data, decreasing over time (gradually increasing concentration of chloride (aqueous NaCl), FIG. 13): less than 40 % of normal maximum gape

O=S(=O)([O-])[O-].[Cu+2] [copper, CuSO4]
gape when DOA exceeded 8 (copper (aqueous CuSO4), between 0.5 and 1.0 hours): 50%
DOA values (copper (aqueous CuSO4), system as in Example 3, between 0.5 and 1.0 hours, copper concentration still relatively low, FIG. 21): exceed 8 out of a possible 10

O=S(=O)(O)O [sulphuric acid]
DOA (Degree of Alarm) values, spike (sulphuric acid, DOA=(V·|R|)/M, appears before 200 minutes, FIG. 10): greater than 100
percentage gape at the variance spike (sulphuric acid, variance spikes shortly before 200 minutes, FIG. 9): ≤ 40%
average percentage gape of the mollusks (water loaded with sulphuric acid (pH drop), shortly after 200 minutes, FIG. 8): less than 10 % of the normal maximum
